Consider 13 compounds from ChEMBL document CHEMBL1121759, “Aporphines, 36. Dopamine receptor interactions of trihydroxyaporphines. Synthesis, radioreceptor binding, and striatal adenylate cyclase stimulation of 2,10,11-trihydroxyaporphines in comparison with other hydroxylated aporphines” (J Med Chem, 1981).

Molecules are shown by their SMILES. Active and inactive are the calls of the source. The rule behind the calls is not given here.

The first test concerns the target T1, Adenylate cyclase (Rattus norvegicus) (UniProt D4A3N4+P26770+Q04400+P26769+Q03343+P40146+Q8CFM9+P21932). The test is described as follows: Dopamine sensitive adenylate cyclase activity (stimulation) in homogenates of rat brain striatal tissue was assessed at 50 uM of compound; +++ = 61-80% incresae of cAMP above basal activity. The class given is tissue-based.
Take `CN1CCc2cccc3c2[C@H]1Cc1ccc(O)c(O)c1-3`: the Stimulation result was “Partially active”. For the compound `CCCN1CCc2cccc3c2[C@H]1Cc1ccc(O)c(O)c1-3` (stereo in doubt; 1b), the Stimulation result was “Partially active”.

In the next test the target is T1, Adenylate cyclase (Rattus norvegicus). Briefly: Dopamine sensitive adenylate cyclase activity (stimulation) in homogenates of rat brain striatal tissue was assessed at 50 uM; + = <40% increase of cAMP above basal activity. The class given is tissue-based.
As for `CCCN1CCc2cccc3c2[C@H]1Cc1cccc(O)c1-3`, the Stimulation entry was “Partially active”. As for `C=CCN1CCc2cc(O)cc3c2[C@H]1Cc1ccc(O)c(O)c1-3`, the Stimulation result was “Partially active”. Still for that read-out and setting: next, `OCCN1CCc2cccc3c2[C@H]1Cc1ccc(O)c(O)c1-3`: “Partially active”; `Oc1cc2c3c(c1)-c1c(ccc(O)c1O)C[C@H]3NCC2`: “Partially active”; `CCCN1CCc2cc(O)cc3c2[C@H]1Cc1ccc(O)c(O)c1-3`: “Partially active”. Same read-out and setting: next, `CCN1CCc2cc(O)cc3c2[C@H]1Cc1ccc(O)c(O)c1-3`: “Partially active”; `C#CCN1CCc2cc(O)cc3c2[C@H]1Cc1ccc(O)c(O)c1-3`: “Partially active”; `CN1CCc2cccc3c2C1Cc1ccc(O)cc1-3` (stereo not drawn): “Partially active”.

The next test shares this target. The test is described as follows: Dopamine sensitive adenylate cyclase activity (stimulation) in homogenates of rat brain striatal tissue was assessed at 50 uM of compound; ++ = 41-60% incresae of cAMP above basal activity. The class given is tissue-based.
Take `CN1CCc2cc(O)cc3c2[C@H]1Cc1ccc(O)c(O)c1-3`: the Stimulation entry was “Active”. Still for that read-out and setting: the result for `CCCN1CCc2cccc3c2[C@H]1Cc1ccc(O)c(O)c1-3` (stereo in doubt; 1c) reads “Active”.

For the next test the target is unchanged. Briefly: Dopamine sensitive adenylate cyclase activity (stimulation) in homogenates of rat brain striatal tissue was assessed at 50 uM of compound; Inhibitis the cyclase activity. The class given is tissue-based.
For `Oc1ccc2c(c1O)-c1cccc3c1[C@@H](C2)N(CCCl)CC3`, the Stimulation result is “inactive”.
